Experimental data reported in paper PMC7129073 (Clinical Microbiology and Infection, 2015).
Values after ≈ are worked out from the molar mass of the structure shown. Like-named read-outs stand apart in the source and are kept apart here.

How the values were obtained:
[1] = system: Acinetobacter; experiment: Disk diffusion; type: cell-based; settings: 37 isolates selected as resistant to beta-lactams
[2] = system: ERSP; experiment: Broth microdilution; type: cell-based, Streptococcus pneumoniae
[3] = system: H.influenzae; experiment: Broth microdilution; type: cell-based, Haemophilus influenzae; settings: for %Sus: NCCLS
[4] = system: PRSP; experiment: Broth microdilution; type: cell-based, Streptococcus pneumoniae
[5] = system: S. pneumoniae; experiment: Broth microdilution; type: cell-based, Streptococcus pneumoniae
[6] = system: S. pneumoniae (SPN); experiment: NCCLS broth microdilution, fluoroquinolones 1999–2004; type: cell-based, Streptococcus pneumoniae; settings: for MIC50 / MIC90: Streptococcus pneumoniae
[7] = system: K. pneumoniae; experiment: E-test susceptibility; type: cell-based, Klebsiella pneumoniae
[8] = system: K. pneumoniae; experiment: MIC; type: cell-based, Klebsiella pneumoniae; settings: for MIC: Klebsiella pneumoniae
[9] = system: Klebsiella; experiment: SMART 2003 Europe, microdilution; type: cell-based, Klebsiella spp.; settings: 341 isolates
[10] = system: K. oxytoca; experiment: E-test susceptibility; type: cell-based, Klebsiella oxytoca
[11] = system: Enterobacter spp; experiment: E-test susceptibility; type: cell-based
[12] = system: E. coli; experiment: SMART 2003 Europe, microdilution; type: cell-based, Escherichia coli; settings: 1106 isolates
[13] = system: Enterobacteriaceae; experiment: SMART 2003 Europe, microdilution; type: cell-based; settings: 1948 isolates
[14] = system: inducible Enterobacteriaceae; experiment: SMART 2003, intraabdominal isolates; type: cell-based
[15] = system: E. coli; experiment: E-test susceptibility; type: cell-based, Escherichia coli
[16] = system: MSSA; experiment: Agar dilution MIC; type: cell-based, Staphylococcus aureus
[17] = system: Escherichia coli; experiment: Vitek 2 susceptibility, urine isolates of children; type: cell-based
[18] = system: Streptococcus agalactiae strains P0162 and P0425; experiment: Microdilution; type: cell-based
[19] = system: S. pneumoniae; experiment: MIC of invasive strains, Saint George Hospital 2001–2004; type: cell-based, Streptococcus pneumoniae
[20] = system: F. necrophorum; experiment: E-test, 13 clinical isolates; type: cell-based, Fusobacterium necrophorum
[21] = system: nontyphoidal Salmonella; experiment: Agar dilution, isolates from chickens 1998–2004; type: cell-based, Salmonella spp.
[22] = system: Shigella spp.; experiment: Disk diffusion, stool isolates Tehran; type: cell-based; settings: 96 isolates
[23] = NCCLS breakpoints (Amox/Clav 2/1 mcg/mL)
[24] = PK breakpoint of 4/2 mcg/mL, Augmentin ES-600
[25] = ICU, SRGA breakpoints, tigecycline tentative S ≤2 μg/ml

CCn1cc(C(=O)O)c(=O)c2cc(F)c(N3CCNC(C)C3)c(F)c21 (stereo not drawn) [lomefloxacin]
resistant isolates [1]: 100.0%

Amoxicillin / Clavulanic acid [Amox/Clav]
MIC90 [2]: 8 mg/L
%Sus [2, 23]: 81.5%
%Sus [2, 24]: 88.6%
MIC90 [3]: 2 mg/L
%Sus [3]: 99.2%
MIC90 [4]: 8 mg/L
%Sus [4, 23]: 67.1%
%Sus [4, 24]: 83.5%
MIC90 [5]: 2 mg/L
%Sus [5, 23]: 92.3%
%Sus [5, 24]: 96.5%

Trimethoprim/sulfamethoxazole [TMP/SMX]
MIC90 [2]: 8 mg/L
%Sus [2, 23]: 24.5%
MIC90 [3]: > 4 mg/L
%Sus [3]: 76.5%
MIC90 [4]: > 8 mg/L
%Sus [4, 23]: 13.8%
MIC90 [5]: 8 mg/L
%Sus [5, 23]: 50.2%

CO/N=C1\CN(c2nc3c(cc2F)c(=O)c(C(=O)O)cn3C2CC2)CC1CN (stereo not drawn) [GEMI, gemifloxacin]
MIC range [6]: 0.25 to 2 mg/L
% I ([6]; 1999 (554)): 0.4%
% S ([6]; 1999 (554)): 99.6%
%R ([6]; 1999 (554)): 0.0%
% I ([6]; 2000 (508)): 0.2%
% S ([6]; 2000 (508)): 99.6%
%R ([6]; 2000 (508)): 0.2%
% I ([6]; 2001 (1.435)): 0.3%
% S ([6]; 2001 (1.435)): 99.4%
%R ([6]; 2001 (1.435)): 0.3%
% I ([6]; 2002 (1.502)): 0.3%
% S ([6]; 2002 (1.502)): 99.5%
%R ([6]; 2002 (1.502)): 0.2%
% I ([6]; 2003 (890)): 0.0%
% S ([6]; 2003 (890)): 100.0%
%R ([6]; 2003 (890)): 0.0%
% I ([6]; 2004 (1.003)): 0.7%
% S ([6]; 2004 (1.003)): 99.2%
%R ([6]; 2004 (1.003)): 0.1%
% I ([6]; All years (5.892)): 0.3%
% S ([6]; All years (5.892)): 99.5%
%R ([6]; All years (5.892)): 0.2%
MIC50 [6]: 0.5 mg/L (≈ 1.28 µM)
MIC90 [6]: 1 mg/L (≈ 2.57 µM)
MIC50 ([6]; 1999 (554)): ≤ 0.03 mg/L
MIC90 ([6]; 1999 (554)): ≤ 0.03 mg/L
MIC50 ([6]; 2000 (508)): ≤ 0.03 mg/L
MIC90 ([6]; 2000 (508)): ≤ 0.03 mg/L
MIC50 ([6]; 2001 (1.435)): 0.016 mg/L (≈ 0.0411 µM)
MIC90 ([6]; 2001 (1.435)): 0.03 mg/L (≈ 0.077 µM)
MIC50 ([6]; 2002 (1.502)): 0.016 mg/L (≈ 0.0411 µM)
MIC90 ([6]; 2002 (1.502)): 0.03 mg/L (≈ 0.077 µM)
MIC50 ([6]; 2003 (890)): 0.016 mg/L (≈ 0.0411 µM)
MIC90 ([6]; 2003 (890)): 0.03 mg/L (≈ 0.077 µM)
MIC50 ([6]; 2004 (1.003)): 0.016 mg/L (≈ 0.0411 µM)
MIC90 ([6]; 2004 (1.003)): 0.03 mg/L (≈ 0.077 µM)
MIC50 ([6]; All years (5.892)): 0.016 mg/L (≈ 0.0411 µM)
MIC90 ([6]; All years (5.892)): 0.03 mg/L (≈ 0.077 µM)
MIC90 ([6]; read-out: MIC90 during the six years, 1999–2004): 0.03 mg/L (≈ 0.077 µM)

CO/N=C(\C(=O)N[C@@H]1C(=O)N2C(C(=O)[O-])=C(C[N+]3(C)CCCC3)CS[C@H]12)c1csc(N)n1 [cefepime]
resistant isolates [1]: 21.6%
Susceptible isolates ([7]; ICU): 98%
Susceptible isolates ([7]; non ICU): 100%
MIC [8]: > 64 mg/L
per cent susceptible [9]: 94%
Susceptible isolates ([10]; ICU): 100%
Susceptible isolates ([10]; non ICU): 96%
Susceptible isolates ([11]; ICU): 84%
Susceptible isolates ([11]; non ICU): 92%
per cent susceptible [12]: 96%
per cent susceptible [13]: 96%
% susceptible ([14]; A/P (N = 200)): 89%
% susceptible ([14]; EU (N = 354)): 97%
% susceptible ([14]; LA (N=113)): 88%
% susceptible ([14]; NA (N = 163)): 92%
Susceptible isolates [15, 25]: 98%
Susceptible isolates ([15]; non ICU): 99%

CO[C@@]1(NC(=O)C(C(=O)O)c2ccc(O)cc2)C(=O)N2C(C(=O)O)=C(CSc3nnnn3C)CO[C@@H]21 (stereo partly drawn) [moxalactam]
resistant isolates [1]: 75.7%

Cc1onc(-c2ccccc2Cl)c1C(=O)N[C@@H]1C(=O)N2[C@@H]1SC(C)(C)[C@@H]2C(=O)O [Cloxacilin, cloxacillin]
MIC50 ([16]; Staphylococcus aureus, MSSA): < 0.25 mg/L
MIC90 ([16]; Staphylococcus aureus, MSSA): < 0.25 mg/L
MIC range ([16]; n = 200): 125 to 16000 mg/L

CCN1CCN(C(=O)N[C@@H](C(=O)N[C@@H]2C(=O)N3C(C(=O)O)=C(CSc4nnnn4C)CS[C@H]23)c2ccc(O)cc2)C(=O)C1=O [cefoperazone]
resistant isolates [1]: 100.0%

CC(=O)OCC1=C(C(=O)O)N2C(=O)[C@@H](NC(=O)Cc3cccs3)[C@H]2SC1 [cefalothin]
susceptibility rate ([17]; paediatric surgical unit (PSU)): 19%
susceptibility rate ([17]; paediatric units (PU)): 66%

colistin
susceptibility category ([8]; BSAC): susceptible

C[C@@H](O)[C@H]1C(=O)N2C(C(=O)O)=C(S[C@@H]3CN[C@H](C(=O)Nc4cccc(C(=O)O)c4)C3)[C@H](C)[C@H]12 [ertapenem]
MIC [8]: > 16 mg/L
per cent susceptible [9]: 99%
per cent susceptible [12]: >99%
per cent susceptible [13]: 99%
% susceptible ([14]; A/P (N = 200)): 98%
% susceptible ([14]; EU (N = 354)): 98%
% susceptible ([14]; LA (N=113)): 91%
% susceptible ([14]; NA (N = 163)): 94%

CC1(C)S[C@@H]2[C@H](NC(=O)[C@H](NC(=O)N3CCN(S(C)(=O)=O)C3=O)c3ccccc3)C(=O)N2[C@H]1C(=O)O [mezlocillin]
resistant isolates [1]: 100.0%

NC1CCN(c2c(F)cc3c(=O)c(C(=O)O)cn(C4CC4)c3c2Cl)C1 (stereo not drawn) [clinafloxacin]
MIC ([18]; strain P0162 (ParC Ser79Phe, GyrA Glu85Ala)): 0.25 mg/L (≈ 0.683 µM)
MIC ([18]; strain P0425 (ParC Ser79Phe, GyrA Glu85Lys)): 0.75 mg/L (≈ 2.05 µM)

CN(C)c1cc(NC(=O)CNC(C)(C)C)c(O)c2c1C[C@H]1C[C@H]3[C@H](N(C)C)C(O)=C(C(N)=O)C(=O)[C@@]3(O)C(O)=C1C2=O [Tigecycline]
Susceptible isolates ([7]; ICU): 93%
Susceptible isolates ([7]; non ICU): 98%
Susceptible isolates ([11]; ICU): 91%
Susceptible isolates ([11]; non ICU): 96%

CO/N=C(\C(=O)N[C@@H]1C(=O)N2C(C(=O)O)=C(COC(N)=O)CS[C@H]12)c1ccco1 [Cefuroxime, cefuroxim]
MIC90 [2]: 8 mg/L (≈ 18.9 µM)
%Sus [2, 23]: 26.0%
% S [19]: 95.2%
%R [19]: 4.8%
MIC90 [3]: 2 mg/L (≈ 4.71 µM)
%Sus [3]: 96.7%
MIC90 [4]: 8 mg/L (≈ 18.9 µM)
%Sus [4, 23]: 0.7%
MIC90 [5]: 8 mg/L (≈ 18.9 µM)
%Sus [5, 23]: 65.2%
Susceptible isolates [15, 25]: 92%
Susceptible isolates ([15]; non ICU): 94%

C[C@H]1c2cccc(O)c2C(=O)C2=C(O)[C@]3(O)C(=O)C(C(N)=O)=C(O)[C@@H](N(C)C)[C@@H]3[C@@H](O)[C@@H]21 [doxycycline]
resistant isolates [1]: 54.1%
MIC range [20]: 0.016 to 0.75 mg/L
MIC50 ([20]; Fusobacterium necrophorum): 0.064 mg/L (≈ 0.144 µM)
MIC90 ([20]; Fusobacterium necrophorum): 0.19 mg/L (≈ 0.428 µM)

trimethoprim/sulfadiazine [TS]
resistance ([21]; Belgian collection (caecal samples; Belgium, France, Netherlands)): 18%
resistance ([21]; Germany (carcass meat)): 12%

CC1(C)S[C@@H]2[C@H](NC(=O)C(C(=O)O)c3ccccc3)C(=O)N2[C@H]1C(=O)O (stereo partly drawn) [carbenicillin]
resistant isolates [1]: 100.0%

CO/N=C(\C(=O)N[C@@H]1C(=O)N2C(C(=O)O)=CCS[C@H]12)c1csc(N)n1 [ceftizoxime]
resistant isolates [1]: 86.5%
sensitive [22]: 85%
